How the values were obtained:
[1] = biological target: T1, Peroxisome proliferator-activated receptor alpha (Homo sapiens) (UniProt Q07869); assay: Activity at human PPARalpha in CV1 cells by CTF assay relative to 2-(4-{2-[3-(2,4-difluoro-phenyl)-1-heptyl-ureido]-ethyl}-phenoxy)-2-methyl-butyric acid; type: cell-based; conditions: CV-1
T1 sequence (whole entry): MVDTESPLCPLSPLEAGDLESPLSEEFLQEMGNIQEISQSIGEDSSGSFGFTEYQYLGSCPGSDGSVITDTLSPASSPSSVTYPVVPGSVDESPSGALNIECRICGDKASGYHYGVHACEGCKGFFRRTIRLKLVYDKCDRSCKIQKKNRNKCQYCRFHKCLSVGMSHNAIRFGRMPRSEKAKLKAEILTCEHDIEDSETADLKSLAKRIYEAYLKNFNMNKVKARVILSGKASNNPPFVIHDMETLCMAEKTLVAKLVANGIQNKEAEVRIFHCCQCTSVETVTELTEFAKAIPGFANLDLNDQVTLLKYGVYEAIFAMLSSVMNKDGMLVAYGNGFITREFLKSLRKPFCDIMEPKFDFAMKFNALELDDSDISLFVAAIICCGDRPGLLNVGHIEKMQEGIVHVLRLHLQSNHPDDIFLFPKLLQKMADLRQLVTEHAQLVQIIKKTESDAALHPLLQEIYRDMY

[2] = biological target: T2, Peroxisome proliferator-activated receptor alpha (Homo sapiens, UniProt Q07869); assay: Displacement of [3H]2-(4-{2-[3-(2,4-difluoro-phenyl)-1-heptyl-ureido]-ethyl}-phenoxy)-2-methyl-butyric acid from hPPARalpha
T2 sequence (Q07869 whole entry): T1 sequence (whole entry)

[3] = biological target: T3, Peroxisome proliferator-activated receptor gamma (Homo sapiens, UniProt P37231)
T3 sequence (P37231 whole entry): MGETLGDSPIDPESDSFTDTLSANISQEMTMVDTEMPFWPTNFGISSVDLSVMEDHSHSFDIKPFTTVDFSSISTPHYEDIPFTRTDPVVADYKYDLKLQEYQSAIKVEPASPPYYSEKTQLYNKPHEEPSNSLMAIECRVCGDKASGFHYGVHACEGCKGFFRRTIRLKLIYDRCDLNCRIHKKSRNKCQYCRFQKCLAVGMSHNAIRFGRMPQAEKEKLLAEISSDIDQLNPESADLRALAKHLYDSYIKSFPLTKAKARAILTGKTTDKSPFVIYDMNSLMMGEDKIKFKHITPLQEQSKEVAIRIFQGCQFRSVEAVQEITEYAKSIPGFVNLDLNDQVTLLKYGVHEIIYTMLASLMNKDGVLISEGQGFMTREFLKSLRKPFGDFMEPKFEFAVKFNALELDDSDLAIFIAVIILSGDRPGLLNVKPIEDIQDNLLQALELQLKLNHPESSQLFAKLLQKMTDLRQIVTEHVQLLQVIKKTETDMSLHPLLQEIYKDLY
Description: Displacement of [3H]2-methyl-2-(4-{3-propyl-(5-pyridin-2yl-thiophene-2-sulfonyl)-amino]-pro-pyl}-phenoxy)-propionic acid from human PPARgamma

[4] = biological target: T3, Peroxisome proliferator-activated receptor gamma; remark: listed apart in the source
Description: Activity at human PPARgamma in CV1 cells

Rattus norvegicus = assay: Reduction of plasma glucose level in orally dosed Zucker diabetic fatty rat; type: functional; conditions: ZDF, po
[5] = biological target: T2, Peroxisome proliferator-activated receptor alpha; assay: Activity at human PPARalpha in CV1 cells; type: cell-based, CV-1
Mus musculus = assay: Reduction of plasma glucose level in db/db mouse at 30 mg/kg, po relative to rosiglitazone; type: functional; design: scale not given: the % may be the effect or the level left

SMILES | Efficacy [1] [%] | IC50 [2] [nM] | IC50 [3] [nM] | EC50 [4] [nM] | ED50 (Rattus norvegicus) [mg/kg] | EC50 [5] [nM] | Activity (Mus musculus) [%]
Cc1oc(-c2ccccc2)nc1CCOc1ccc(CCC(=O)O)c(CNC(=O)NCc2ccccc2)c1 | 5 | > 10000 | 706 | 2680 | – | – | –
Cc1oc(-c2ccc(Oc3ccccc3)cc2)nc1CCOc1ccc(CCC(=O)O)c(CNC(=O)OC(C)C)c1 | 46 | 516 | 50 | 2 | 0.05 | 78 | –
Cc1oc(-c2ccccc2)nc1CCOc1ccc(CCC(=O)O)c(CNC(=O)OC(C)C)c1 | 51 | 146 | 26 | 8 | – | 70 | 58
Cc1oc(-c2ccccc2)nc1CCOc1ccc(CCC(=O)O)c(CNC(=O)CCc2ccccc2)c1 | 32 | 4960 | 161 | 1020 | – | 2800 | –
Cc1oc(-c2ccccc2)nc1CCOc1ccc(CCC(=O)O)c(CNC(=O)Oc2cnccn2)c1 | 60 | 53 | 17 | 7 | – | 35 | –
Cc1oc(-c2ccc(-c3ccccc3)cc2)nc1CCOc1ccc(CCC(=O)O)c(CNC(=O)Oc2cnccn2)c1 | 68 | 449 | 26 | 2 | 0.03 | 198 | 87
Cc1oc(-c2ccc(-c3ccccc3)cc2)nc1CCOc1ccc(CCC(=O)O)c(CNC(=O)OC(C)C)c1 | – | 3490 | 47 | 19 | 0.02 | 845 | 56
CC(C)(Oc1ccc(C(=O)c2ccc(Cl)cc2)cc1)C(=O)O [FENOFIBRIC ACID] | 35 | > 10000 | – | – | – | 2650 | –
Cc1oc(-c2ccccc2)nc1CCOc1ccc(CCC(=O)O)c(CNS(=O)(=O)Cc2ccccc2)c1 | 33 | 3390 | 72 | 527 | – | 2940 | –
Cc1sc(N2CCOCC2)nc1CCOc1ccc(CCC(=O)O)c(CNC(=O)OC(C)C)c1 | 37 | 1490 | 22 | 28 | 0.12 | 986 | 58
Cc1oc(-c2ccc(-c3ncccn3)cc2)nc1CCOc1ccc(CCC(=O)O)c(CNC(=O)OC(C)C)c1 | 37 | 9940 | 50 | 4 | 0.04 | 900 | 52
Cc1oc(-c2ccccc2)nc1CCOc1ccc(CCC(=O)O)c(CNC(=O)OCc2ccccc2)c1 | 54 | 441 | 91 | 115 | – | 515 | –

Reference: ChEMBL document CHEMBL1146164, “Synthesis and evaluation of aminomethyl dihydrocinnamates as a new class of PPAR ligands” (Bioorg Med Chem Lett, 2006)
